Measured values reported in patent US20250051338A1, “TYK2 DEGRADERS AND USES THEREOF” (Kymera Therapeutics, Inc., priority 2021, published 2025).

What was measured:
Type in all cases: cell-based
TYK2 [1] = biological target: T1, TYK2 (Homo sapiens, UniProt P29597); experiment: TYK2 degradation MSD assay in OCI-LY10 cells; design: endogenous in cells; host or cells: EBV-B cells; conditions: 4 to 24 hours incubation, read-out: TYK2 MSD DC50 rating in OCI-LY10
Procedure, shortened: (§1)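 MSD electrochemiluminescence readout of residual TYK2 in RIPA lysates after 4–24 h compound exposure at 37° C. Dosing: 9 concentrations, 1:3 steps, top 1 to 10 μM. DC50 fitted by four-parameter inhibitor vs. response regression.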

TYK2 [2] = biological target: T1, TYK2; experiment: TYK2 degradation MSD assay in human PBMC cells; design: endogenous in cells; host or cells: human PBMC; conditions: 4 to 24 hours incubation, read-out: TYK2 MSD DC50 rating in human PBMC
Procedure, shortened: as §1

TYK2 [3] = biological target: T1, TYK2; experiment: TYK2 degradation MSD assay in EBV-B cells; design: endogenous in cells; host or cells: EBV-B cells; conditions: 4 to 24 hours incubation, read-out: TYK2 MSD DC50 rating in EBV-B
Procedure, shortened: as §1

T1 sequence (P29597 whole entry): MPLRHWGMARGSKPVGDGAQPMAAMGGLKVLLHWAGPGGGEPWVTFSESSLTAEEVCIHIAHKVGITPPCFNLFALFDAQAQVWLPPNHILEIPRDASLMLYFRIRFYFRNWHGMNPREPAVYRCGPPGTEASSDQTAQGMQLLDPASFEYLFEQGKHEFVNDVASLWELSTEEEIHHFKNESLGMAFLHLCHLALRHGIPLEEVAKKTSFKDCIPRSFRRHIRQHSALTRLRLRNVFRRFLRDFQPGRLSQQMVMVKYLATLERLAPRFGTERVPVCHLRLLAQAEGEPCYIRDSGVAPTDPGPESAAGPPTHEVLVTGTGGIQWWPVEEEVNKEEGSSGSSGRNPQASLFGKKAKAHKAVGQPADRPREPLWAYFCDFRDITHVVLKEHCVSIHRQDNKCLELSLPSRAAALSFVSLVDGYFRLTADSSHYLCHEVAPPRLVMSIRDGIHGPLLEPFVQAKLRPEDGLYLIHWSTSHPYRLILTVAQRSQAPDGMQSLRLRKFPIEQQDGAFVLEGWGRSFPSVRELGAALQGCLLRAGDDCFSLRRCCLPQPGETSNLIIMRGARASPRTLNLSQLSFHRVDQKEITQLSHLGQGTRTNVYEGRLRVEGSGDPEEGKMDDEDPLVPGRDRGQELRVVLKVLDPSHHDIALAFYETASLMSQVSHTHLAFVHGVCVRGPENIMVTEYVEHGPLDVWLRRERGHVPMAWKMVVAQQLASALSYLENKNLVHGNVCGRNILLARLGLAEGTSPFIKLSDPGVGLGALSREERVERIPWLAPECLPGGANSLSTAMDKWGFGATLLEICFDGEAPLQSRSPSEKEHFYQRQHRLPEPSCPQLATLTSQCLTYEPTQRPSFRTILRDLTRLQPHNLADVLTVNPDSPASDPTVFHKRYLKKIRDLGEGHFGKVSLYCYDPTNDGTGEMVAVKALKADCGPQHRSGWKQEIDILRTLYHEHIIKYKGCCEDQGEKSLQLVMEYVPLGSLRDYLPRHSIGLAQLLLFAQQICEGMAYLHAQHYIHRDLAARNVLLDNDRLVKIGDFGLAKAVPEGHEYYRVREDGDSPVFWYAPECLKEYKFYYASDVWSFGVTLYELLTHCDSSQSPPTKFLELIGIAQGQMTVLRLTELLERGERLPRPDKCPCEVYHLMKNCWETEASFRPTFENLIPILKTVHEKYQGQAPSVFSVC

DC50 (TYK2 [1]) [nM] | DC50 (TYK2 [2]) [nM] | DC50 (TYK2 [3]) [nM] | Structure (SMILES)
> 100 | > 100 | > 100 | Cn1c(=O)n(C2CCC(=O)NC2=O)c2ccc(N3CCN(Cc4ccc(-c5cccc(Nc6ccc7ncc(C(=O)NC8CC8)n7n6)c5)nc4)CC3)cc21 (stereo not drawn) [Example K406]
> 100 | 1 to 10 | < 1 | CNC(=O)c1cnc(Nc2ccc(CN3CCC(CN(C)c4ccc5c(c4)n(C)c(=O)n5C4CCC(=O)NC4=O)CC3)cn2)cc1Nc1cccc(-c2ncc(F)cn2)c1OC (stereo not drawn) [Example K147]
> 100 | > 100 | > 100 | CNc1cc(Nc2cccn(-c3ccc(C(=O)NCCCCc4ccc5c(c4)n(C)c(=O)n5C4CCC(=O)NC4=O)cn3)c2=O)nn2c(C(N)=O)cnc12 (stereo not drawn) [Example K320]
> 100 | 1 to 10 | > 100 | CNc1cc(Nc2cccn(-c3ccc(C(=O)NCCOCCOCCOCCOCCc4ccc5c(c4)n(C)c(=O)n5C4CCC(=O)NC4=O)cn3)c2=O)nn2c(C(=O)N[C@@H]3C[C@@H]3F)cnc12 (stereo partly drawn) [Example K263]
> 100 | > 100 | > 100 | CNC(=O)c1cnc(Nc2ccc(C(=O)NCCCCc3ccc4c(c3)n(C)c(=O)n4C3CCC(=O)NC3=O)cn2)cc1Nc1ccccc1OC (stereo not drawn) [Example K706]
> 100 | > 100 | > 100 | CNc1cc(Nc2cccc(CN3CCC34CN(c3ncc(C#Cc5ccc6c(c5)n(C)c(=O)n6C5CCC(=O)NC5=O)cn3)C4)c2)nn2c(C(=O)NC3CC3)cnc12 (stereo not drawn) [Example K580]
> 100 | > 100 | > 100 | CNc1cc(-c2cnn(C3CCC(CN(C)C4CCN(c5ccc6c(c5)n(C)c(=O)n6C5CCC(=O)NC5=O)CC4)CC3)c2)nn2c(C(=O)N[C@@H]3C[C@@H]3F)cnc12 (stereo partly drawn) [Example K361]
< 1 | > 100 | > 100 | CNc1cc(Nc2cccc(-c3ccc(C(=O)N4CCN(C5CCC(c6ccc(-c7ccc8c(c7)n(C)c(=O)n8C7CCC(=O)NC7=O)cc6)CC5)CC4)cn3)c2OC)nn2c(C(=O)N[C@@H]3C[C@@H]3F)cnc12 (stereo partly drawn) [Example K617]
> 100 | > 100 | < 1 | CNC(=O)c1cnc(Nc2ccc(CN3CC4(CCN(c5ccc6c(c5)n(C)c(=O)n6C5CCC(=O)NC5=O)CC4)C3)cn2)cc1Nc1cccc(-c2ncc(F)cn2)c1OC (stereo not drawn) [Example K149]
< 1 | > 100 | > 100 | CNc1cc(Nc2cccn(-c3ccc(C(=O)N(C)C4CCN(c5ccc(-c6ccc7c(c6)n(C)c(=O)n7C6CCC(=O)NC6=O)cc5)C4)cn3)c2=O)nn2c(C(=O)N[C@@H]3C[C@@H]3F)cnc12 (stereo partly drawn) [Example K439]
1 to 10 | 1 to 10 | > 100 | CNC(=O)c1cnc(Nc2ccc(C(=O)NCCCCc3cccc4c3n(C)c(=O)n4C3CCC(=O)NC3=O)cn2)cc1Nc1ccccc1OC (stereo not drawn) [Example K191]
1 to 10 | > 100 | > 100 | CNc1cc(Nc2cccc(CN3CCN(CCc4ccc5c(c4)n(C)c(=O)n5C4CCC(=O)NC4=O)CC3)c2)nn2c(C(=O)NC3CC3)cnc12 (stereo not drawn) [Example K613]
> 100 | > 100 | > 100 | CNc1cc(-c2cccc(C(=O)NCCCCCCc3cccc4c3n(C)c(=O)n4C3CCC(=O)NC3=O)c2)nn2c(C(=O)N[C@@H]3C[C@@H]3F)cnc12 (stereo partly drawn) [Example K308]
> 100 | > 100 | < 1 | CNC(=O)c1cnc(Nc2ccc(CN3CCC(c4ccc5c(c4)n(C)c(=O)n5C4CCC(=O)NC4=O)CC3)cn2)cc1Nc1cccc(-c2ncc(F)cn2)c1OC (stereo not drawn) [Example K172]
> 100 | < 1 | < 1 | CNC(=O)c1cnc(Nc2ccc(CN3CCN(CC4CCN(c5ccc(-c6ccc7c(c6)n(C)c(=O)n7C6CCC(=O)NC6=O)cc5)CC4)CC3)cn2)cc1Nc1cccc(-c2ncc(F)cn2)c1OC (stereo not drawn) [Example K139]
1 to 10 | > 100 | > 100 | CNc1cc(Nc2cccn(-c3ccc(C(=O)N4CCC5(CCN(c6cnc(C#Cc7ccc8c(c7)n(C)c(=O)n8C7CCC(=O)NC7=O)nc6)C5=O)C4)cn3)c2=O)nn2c(C(=O)N[C@@H]3C[C@@H]3F)cnc12 (stereo partly drawn) [Example K409]
> 100 | > 100 | 1 to 10 | CCNC(=O)c1cnc(Nc2ccc(C(=O)N(C)C3CCN(c4ccc5c(c4)n(C)c(=O)n5C4CCC(=O)NC4=O)CC3)cn2)cc1Nc1cccc(-c2ncc(F)cn2)c1OC (stereo not drawn) [Example K152]
> 100 | > 100 | 1 to 10 | CNC(=O)c1cnc(Nc2ccc(CN3CCC(c4cccc5c4n(C)c(=O)n5C4CCC(=O)NC4=O)C3)cn2)cc1Nc1cccc(-c2ncc(F)cn2)c1OC (stereo not drawn) [Example K165]

DC50 (TYK2 [1]) [nM] | DC50 (TYK2 [2]) [nM] | DC50 (TYK2 [3]) [nM] | Structure (SMILES)
> 100 | 1 to 10 | < 1 | CNC(=O)c1cnc(Nc2ccc(CN3CCC(CC#Cc4cccc5c4n(C)c(=O)n5C4CCC(=O)NC4=O)CC3)cn2)cc1Nc1cccc(-c2ncc(F)cn2)c1OC (stereo not drawn) [Example K136]
> 100 | > 100 | > 100 | CNc1cc(Nc2cccc(C(=O)NCCCCc3ccc4c(c3)n(C)c(=O)n4C3CCC(=O)NC3=O)c2)nn2c(C(=O)N[C@@H]3C[C@@H]3F)cnc12 (stereo partly drawn) [Example K247]
> 100 | 1 to 10 | > 100 | CNC(=O)c1cnc(NC(=O)NCCCCCCCCc2cccc3c2n(C)c(=O)n3C2CCC(=O)NC2=O)cc1Nc1cccc(-c2ncc(F)cn2)c1OC (stereo not drawn) [Example K184]
1 to 10 | > 100 | > 100 | CNc1cc(Nc2cccc(C3CCC(CN4CCN(c5ccc(-c6ccc7c(c6)n(C)c(=O)n7C6CCC(=O)NC6=O)cc5)CC4)CC3)c2OC)nn2c(C(=O)N[C@@H]3C[C@@H]3F)cnc12 (stereo partly drawn) [Example K621]
1 to 10 | > 100 | > 100 | CNc1cc(Nc2cc(F)cc(-c3ccc(CN4CCN(c5ccc(-c6ccc7c(c6)n(C)c(=O)n7C6CCC(=O)NC6=O)cc5)CC4)cn3)c2OC)nn2c(C(=O)N[C@@H]3C[C@@H]3F)cnc12 (stereo partly drawn) [Example K577]
< 1 | > 100 | > 100 | CNc1cc(Nc2cccn(-c3ccc(CN4CCN(c5ccc(-c6ccc7c(c6)n(C)c(=O)n7C6CCC(=O)NC6=O)cn5)C(=O)C4)cn3)c2=O)nn2c(C(=O)N[C@@H]3C[C@@H]3F)cnc12 (stereo partly drawn) [Example K457]
> 100 | > 100 | > 100 | Cn1c(=O)n(C2CCC(=O)NC2=O)c2cccc(C3CN(C4CCN(Cc5ccc(-c6cccc(Nc7ccc8ncc(C(=O)NC9CC9)n8n7)c6)nc5)CC4)C3)c21 (stereo not drawn) [Example K403]
> 100 | > 100 | > 100 | CNc1cc(Nc2ccccc2C(=O)NCCCCc2ccc3c(c2)n(C)c(=O)n3C2CCC(=O)NC2=O)nn2c(C(=O)N[C@@H]3C[C@@H]3F)cnc12 (stereo partly drawn) [Example K252]
< 1 | > 100 | > 100 | CNc1cc(Nc2cccc(N3CCC(CN4CCN(c5ccc(-c6ccc7c(c6)n(C)c(=O)n7C6CCC(=O)NC6=O)cc5)CC4)CC3)c2)nn2c(C(=O)N[C@@H]3C[C@@H]3F)cnc12 (stereo partly drawn) [Example K518]
> 100 | < 1 | < 1 | CNc1cc(Nc2cccn(-c3ccc(C(=O)N4CC5(CCN(c6ccc(-c7ccc8c(c7)n(C)c(=O)n8C7CCC(=O)NC7=O)cn6)CC5)C4)cn3)c2=O)nn2c(C(=O)N[C@@H]3C[C@@H]3F)cnc12 (stereo partly drawn) [Example K383]
> 100 | > 100 | > 100 | Cn1c(=O)n(C2CCC(=O)NC2=O)c2cccc(CCOCCOCCOCCOCCNc3cc(Nc4cccn(-c5ccccn5)c4=O)nn4c(C(=O)N[C@@H]5C[C@@H]5F)cnc34)c21 (stereo partly drawn) [Example K214]
1 to 10 | > 100 | > 100 | CNc1cc(N2CCc3c(-c4ccc(CN5CCC(N6CCN(C(=O)c7ccc(Cl)c(N8CCC(=O)NC8=O)c7)CC6)CC5)cn4)cccc32)nn2c(C(=O)N[C@@H]3C[C@@H]3F)cnc12 [Example K559]
> 100 | > 100 | > 100 | CNc1cc(Nc2cccc(CN3CC4(C3)CN(c3ccc(-c5ccc6c(c5)n(C)c(=O)n6C5CCC(=O)NC5=O)cc3)C4)c2OC)nn2c(C(=O)N[C@@H]3C[C@@H]3F)cnc12 (stereo partly drawn) [Example K610]
1 to 10 | > 100 | 10 to 100 | CNc1cc(Nc2cccc(-c3ccc(CN4CC5(CCN(C(=O)c6ccc(Cl)c(N7CCC(=O)NC7=O)c6)CC5)C4)cn3)c2)nn2c(C(=O)N[C@@H]3C[C@@H]3F)cnc12 [Example K506]
1 to 10 | 1 to 10 | > 100 | CNC(=O)c1cnc(Nc2ccc(C(=O)NCCCCc3cccc4c3n(C)c(=O)n4C3CCC(=O)NC3=O)cn2)cc1Nc1ccccc1 (stereo not drawn) [Example K192]
< 1 | > 100 | > 100 | CNc1cc(Nc2cccc(CN3CCN(c4ccc(-c5ccc6c(c5)n(C)c(=O)n6C5CCC(=O)NC5=O)cc4)CC3)c2Cl)nn2c(C(=O)N[C@@H]3C[C@@H]3F)cnc12 (stereo partly drawn) [Example K564]
> 100 | > 100 | > 100 | CNc1cc(Nc2cccn(-c3ccc(C(=O)NCCCCc4cccc5c4n(C)c(=O)n5C4CCC(=O)NC4=O)cn3)c2=O)nn2c(C(=O)N[C@@H]3C[C@@H]3F)cnc12 (stereo partly drawn) [Example K259]
> 100 | > 100 | 1 to 10 | CNC(=O)c1cnc(Nc2ccc(C(=O)N(C)C3CCN(c4cccc5c4n(C)c(=O)n5C4CCC(=O)NC4=O)CC3)cn2)cc1Nc1ccccc1OC (stereo not drawn) [Example K195]
